Calls of active or inactive are those of the source. No cut-off for these calls is given here.
Assays:
P388 [1] = assay: In vivo antitumor activity against mouse P388 cells at 10 mg/kg; type: functional
9KB = assay: Cytotoxicity against human 9KB cells; type: functional, cell-based
[2] = tested on: Lewis lung carcinoma cell line; assay: In vivo antitumor activity against mouse LLC at 1.25 mg/kg; type: functional
P388 [3] = assay: In vivo antitumor activity against mouse P388 cells at 400 mg/kg; type: functional
L1210 = assay: Cytotoxicity against mouse L1210 cells; type: functional, cell-based
CCRF S-180 = assay: Cytotoxicity against mouse S180 cells; type: functional, cell-based
CA-755 = assay: In vivo antitumor activity against mouse CA-755 cells at 100 mg/kg; type: functional

Row | Compound | T/C (P388 [1]) | Activity (9KB) | T/C [2] | T/C (P388 [3]) | Activity (L1210) | Activity (CCRF S-180) | T/C (CA-755)
1 | COc1cc2oc(=O)ccc2cc1C1OC(=O)[C@]2(C)O[C@H]12 (some centres undefined) | 149% | inactive | 228% |  |  |  | 
2 | COc1cc2ccc(=O)oc2cc1O [SCOPOLETIN] |  | inactive |  | 130% | inactive | inactive | 48%
3 | COc1cc2oc(=O)ccc2cc1C1C=C(C)C(=O)O1 (centres undefined) |  | inactive |  |  |  |  | 

Reference: ChEMBL document CHEMBL1158644, “An investigation of the antitumor activity of Micromelum integerrimum (Rutaceae)” (1979)
